The record followed here is ChEMBL document CHEMBL2146391, “Glucose uptake stimulatory effect of 4-hydroxypipecolic acid by increased GLUT 4 translocation in skeletal muscle cells” (Bioorg Med Chem Lett, 2012).

The source made the active and inactive calls. The rule behind the calls is not given here.

Series [1] relates to L6. Nature of the series: Increase of insulin-stimulated GLUT4 translocation from intracellular compartment into plasma membrane of rat L6-GLUT4myc myotubes at 25 uM after 16 hrs by O-phenylenediamide based enzymatic assay in presence of PI3K inhibitor wortmannin. Type of series: functional, cell-based.
The test system of series [2] is L6. Kind of series: Hypoglycemic activity in rat L6-GLUT4myc myotubes assessed as increase in 2-[3H]-deoxyglucose uptake after 16 hrs by scintillation counter. In kind it is functional, cell-based.
Series [3] concerns L6. Kind of series: Cytotoxicity against rat L6-GLUT4myc myotubes assessed as change in protein level at 25 uM after 16 hrs. Type of series: cell-based. The conditions noted are these: l6, 16 h.
For series [4], the system named is L6. Nature of the series: Induction of GLUT4 mRNA expression in rat L6-GLUT4myc myotubes at 25 uM after 16 hrs by semiquantitative RT-PCR analysis. In kind it is functional, cell-based.
Series [5] deals with L6. Nature of the series: Hypoglycemic activity in rat L6-GLUT4myc myotubes assessed as increase in 2-[3H]-deoxyglucose uptake at 5 uM after 16 hrs by scintillation counter. Type of series: functional, cell-based.
For series [6], the system named is L6. Kind of series: Increase of insulin-stimulated GLUT4 translocation from intracellular compartment into plasma membrane of rat L6-GLUT4myc myotubes at 25 uM after 16 hrs by O-phenylenediamide based enzymatic assay. Type of series: functional, cell-based.
For series [7], the system named is L6. Nature of the series: Induction of IRS-1 mRNA expression in rat L6-GLUT4myc myotubes at 25 uM after 16 hrs by semiquantitative RT-PCR analysis. In kind it is functional, cell-based.
Series [8] concerns L6. Nature of the series: Induction of GLUT4 translocation from intracellular compartment into plasma membrane of rat L6-GLUT4myc myotubes after 16 hrs by O-phenylenediamide based enzymatic assay. Type of series: functional, cell-based.
In series [9] the test system is L6. Nature of the series: Induction of GLUT4 translocation from intracellular compartment into plasma membrane of rat L6-GLUT4myc myotubes at 10 uM after 16 hrs by O-phenylenediamide based enzymatic assay. In kind it is functional, cell-based.
For series [10], the system named is L6. Kind of series: Induction of GLUT4 translocation from intracellular compartment into plasma membrane of rat L6-GLUT4myc myotubes at 25 uM after 16 hrs by O-phenylenediamide based enzymatic assay relative to control. Type of series: functional.
Series [11] deals with L6. Kind of series: Hypoglycemic activity in rat L6-GLUT4myc myotubes assessed as increase in 2-[3H]-deoxyglucose uptake at 25 uM after 16 hrs by scintillation counter relative to control. Type of series: functional.
Series [12] deals with L6. Nature of the series: Cytotoxicity against rat L6-GLUT4myc myotubes assessed as cell viability at 25 uM after 16 hrs by MTT assay. Type of series: cell-based. The conditions noted are these: l6, 16 h. On the technique in general: Tetrazolium assays rely on reduction of a dye to a coloured formazan, in cell work by metabolically active cells.
In series [13] the test system is L6. Nature of the series: Induction of PKB mRNA expression in rat L6-GLUT4myc myotubes at 25 uM after 16 hrs by semiquantitative RT-PCR analysis. In kind it is functional, cell-based.
In series [14] the test system is L6. Nature of the series: Induction of GLUT4 translocation from intracellular compartment into plasma membrane of rat L6-GLUT4myc myotubes at 25 uM by O-phenylenediamide based enzymatic assay relative to control. In kind it is functional, cell-based. The conditions noted are these: TDE = time-dependent effect.

`O=C(O)C1C[C@@H](O)CCN1` (some centres undefined): the result in the series on L6 [1], in the series with L6 [4] and in the series with L6 [13] was inactive. The Activity result is “Dose-dependent effect” in the series on L6 [2]; “Non-toxic” in the series on L6 [3]; “Dose-dependent effect” with L6 [8]; 130% in the series on L6 [10]; “Non-toxic” in the series on L6 [12]; “tde” in the series on L6 [14]. The outcome in the series on L6 [5], in the series with L6 [6], with L6 [7] and in the series on L6 [9] was Active. Further, the “fold change (FC)” value with L6 [11] worked out at 1.25.
